# Values of other authors in patent US20190032079A1, “SYSTEMIC SYNTHESIS AND REGULATION OF L-DOPA” (MYODOPA LIMITED, priority 2015, published 2019).
# Like-named read-outs stand apart in the source and are kept apart here.
# Key:
# TH [1] = target: TH (Rattus norvegicus, UniProt P04177)
# TH [2] = test system: TH
# THΔ32 = THΔ32 (Rattus norvegicus, UniProt P04177)
# THΔ68 = THΔ68 (Rattus norvegicus, UniProt P04177)
# [3] = intra-intestinal infusion; improved control of PD and dyskinesia
# [4] = preincubation with stoichiometric amounts of dopamine
# Chain of TH (Rattus norvegicus, UniProt P04177) (P04177 whole entry): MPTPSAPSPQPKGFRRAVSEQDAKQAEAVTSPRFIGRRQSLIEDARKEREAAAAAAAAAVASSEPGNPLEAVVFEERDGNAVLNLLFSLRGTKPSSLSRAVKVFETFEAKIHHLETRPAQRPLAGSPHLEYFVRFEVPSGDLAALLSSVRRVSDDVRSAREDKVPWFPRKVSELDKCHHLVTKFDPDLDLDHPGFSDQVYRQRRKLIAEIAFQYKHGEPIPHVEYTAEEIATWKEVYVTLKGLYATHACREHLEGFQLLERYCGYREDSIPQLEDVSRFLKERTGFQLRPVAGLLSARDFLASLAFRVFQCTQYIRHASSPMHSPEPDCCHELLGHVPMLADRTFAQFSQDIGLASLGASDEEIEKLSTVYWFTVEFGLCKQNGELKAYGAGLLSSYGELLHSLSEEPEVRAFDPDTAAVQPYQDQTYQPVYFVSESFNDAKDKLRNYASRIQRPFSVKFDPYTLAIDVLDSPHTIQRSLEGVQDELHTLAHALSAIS
# Chain of THΔ68 (P04177 69-498 limits assumed, stated change not applied): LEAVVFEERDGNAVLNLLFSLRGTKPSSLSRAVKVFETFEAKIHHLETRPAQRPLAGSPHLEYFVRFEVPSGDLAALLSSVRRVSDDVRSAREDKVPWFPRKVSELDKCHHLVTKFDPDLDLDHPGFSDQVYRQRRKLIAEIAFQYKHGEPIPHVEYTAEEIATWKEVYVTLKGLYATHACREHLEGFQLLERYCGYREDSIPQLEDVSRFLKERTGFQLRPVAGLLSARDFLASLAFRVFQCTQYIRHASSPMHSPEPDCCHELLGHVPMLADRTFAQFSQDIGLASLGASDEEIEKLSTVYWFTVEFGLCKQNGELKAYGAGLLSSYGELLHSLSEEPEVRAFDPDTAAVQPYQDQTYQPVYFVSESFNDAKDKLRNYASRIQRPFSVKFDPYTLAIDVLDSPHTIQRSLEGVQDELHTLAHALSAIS
# Chain of THΔ32 (P04177 33-498 limits assumed, stated change not applied): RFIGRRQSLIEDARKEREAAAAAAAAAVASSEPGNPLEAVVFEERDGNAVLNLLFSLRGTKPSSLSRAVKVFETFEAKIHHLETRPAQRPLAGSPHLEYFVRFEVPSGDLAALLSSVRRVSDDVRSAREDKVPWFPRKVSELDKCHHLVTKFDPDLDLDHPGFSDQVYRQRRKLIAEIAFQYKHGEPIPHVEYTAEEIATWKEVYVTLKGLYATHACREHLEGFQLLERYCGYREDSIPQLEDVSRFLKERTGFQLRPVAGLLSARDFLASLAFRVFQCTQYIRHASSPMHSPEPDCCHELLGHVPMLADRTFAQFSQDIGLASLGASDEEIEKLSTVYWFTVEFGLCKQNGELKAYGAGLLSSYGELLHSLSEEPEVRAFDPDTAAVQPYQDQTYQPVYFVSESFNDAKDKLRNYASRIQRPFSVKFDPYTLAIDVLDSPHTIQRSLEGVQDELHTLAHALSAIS
compound,measurement,setting,value
"N[C@@H](Cc1ccc(O)c(O)c1)C(=O)O [L-DOPA, L-3,4-dihydroxyphenylalanine]",therapeutic range for plasma L-DOPA,,0.2 to 1.5 mg/L
O=C(O)Cc1ccc(O)c(O)c1 [dihydroxyphenylacetate],binds less tightly than DOPA,TH [1]; relative to DOPA,100 fold
NCCc1ccc(O)c(O)c1 [dopamine],binds more tightly than DOPA,TH [1]; relative to DOPA,1000 fold
same,decrease of DA affinity for TH when the enzyme is phosphorylated,TH [1]; ser40 phosphorylation,300 fold
same,increase of TH activity on dissociation of dopamine from the low-affinity site,TH [2]; Ser40-phosphorylated enzyme,9 fold
same,increase of TH activity on dissociation of dopamine from the low-affinity site,TH [2]; non-phosphorylated enzyme,12 fold
same,Kd,"TH [2]; read-out: K(D), second low affinity dopamine-binding site, present in non-phosphorylated and Ser40-phosphorylated forms",90 nM
same,dopamine release from the enzyme,THΔ32,not released
same,inhibition by dopamine,THΔ32; [4],90%
same,dopamine release from the enzyme,THΔ68,rapidly released
same,inhibition by dopamine,THΔ68; [4],not inhibited
COC(=O)[C@@H](N)Cc1ccc(O)c(O)c1 [levodopa methyl ester],plasma levels of Levodopa,[3],3000 to 4000 ng/mL
